The experiment concerns the target T1, human Pin1 (recombinant from E. coli) (Homo sapiens, UniProt Q13526).
T1 construct: made in house; host or cells: E. coli
Nature of the experiment: protease-coupled PPIase assay, inhibition of hPin1. Particulars: protease-coupled PPlase assay; substrate Ac-Ala-Ala-(PO3H2)Ser-Pro-Arg-(4-)nitroanilide; trypsin; 2 nM enzyme; 35 mM HEPES pH 7.8; 10° C.; 5 min preincubation; read-out: hPin1-inhibition K1. The experiment is classed as biochemical. The source says: As described in example 1, the peptidyl-prolyl-cis/trans-isomerase activity can be determined in the so-called protease coupled PPlase assay with the help of isomer-specific proteolysis and the suitable oligopeptide substrates and isomer-specific proteases. Other processes for the detection of PPlase activity are e.g. observing isomer-specific differences with respect to spectroscopic properties, their mobilities or the foldback catalysis of other proteins as well as isomer-specific chemical compounds when recording core resonance spectra.
If adding active components to one of the test systems listed above leads to a measurable decrease in the reaction speed catalysed by the respective PPlase, these active components are classed PPlase inhibitors, as is exemplarily shown in example 1. Assessment of the PPlase specificity of the inhibitor is carried out by testing different PPlases in the assay. By varying the concentration of the inhibitor and assessing the results measured with conventional processes, the corresponding inhibition constant (KI-value) can be determined. The concentration of the inhibitor which inhibits the PPlase-induced catalysis by 50% is called IC50-value.
Determining the inhibition constants of the selected compound according to the invention 1′,2′,3′H-spiro[indene-3′,3-(3H-5-methoxy-benzofurane-2-one)] vis-à-vis the PPlase hPinl by protease-coupled PPlase assay: • Buffer: 35 mM HEPES (pH 7.8), 1,200 μl • Substrate: Ac-Ala-Ala-(PO3H2)Ser-Pro-Arg-(4-)nitroanilide stock solution 10 mg/ml in 35 mM Hepes (pH 7.8), • Auxiliary protease: trypsin (Roth), stock solution 10 mg/ml in 35 mM Hepes (ph 7.8), concentration in the solution for measuring 0.34 mg/ml • Enzyme: human Pin1 (recombinant from E. coli), stock solution 0.55 μM, concentration in the solution for measuring: 2 nM • Effectors: effector stock solution 10 mM in DMSO, concentration in the solution for measuring between 1,000 and 0.01 μM • Temperature: 10° C.
In the incubation solution, the effectors were preincubated with the enzyme for 5 min, then 3.5 μl of the auxiliary protease trypsin were added and the reaction was started immediately afterwards by adding 3.5 μl substrate. The reaction was monitored at a wave length of 390 nm with the measuring instrument Hewlett Packard UVNIS spectrophotometer HP 8452A. The kinetic analysis of the data was carried out by “SigmaPlot” (Scientific Graphing System Vers. 2.0, Jandel Corp.).
T1 sequence (Q13526 whole entry): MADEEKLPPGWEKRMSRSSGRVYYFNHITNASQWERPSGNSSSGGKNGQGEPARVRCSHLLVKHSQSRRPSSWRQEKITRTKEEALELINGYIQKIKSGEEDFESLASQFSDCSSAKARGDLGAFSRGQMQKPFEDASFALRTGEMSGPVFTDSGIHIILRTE
On to `COC(=O)C1(c2ccccc2O)CCc2ccccc21` (stereo not drawn), for which the Ki was 27 µM. Regarding `O=C1Oc2ccccc2C12Cc1ccccc1C2` [1′,2′,3′H-sprio[indene-2′,3-(3H-benzofurane-2-one)]], the Ki was 7 µM. To `COc1ccc2c(c1)C1(CC(C)c3ccccc31)C(=O)O2` (stereo not drawn) [1′,2′,3′H-sprio[1′-methyl-indene-3′,3-(3H-5-methoxy-benzofurane-2-one)]] belongs 20 µM; to `O=C1Oc2ccccc2C12CC=CC2` [1′,2′,3′H-spiro[cyclopentene-3′,3-(3H-benzofurane-2-one)]], 150 µM. With `COc1ccc2c(c1)C1(CCc3ccccc31)C(=O)O2` (stereo not drawn) [1′,2′,3′H-spiro[indene-3′,3-(3H-5-methoxy-benzofurane-2-one)]] the figure was 6 µM.

For `COc1ccc(OC)c(C(=O)C2CCc3ccccc32)c1` (stereo not drawn) [1-(2,5-dimethoxyphenyl)-1′-indane-1′-1-methanone], the Ki was 50 µM.
